Results: US8247211B2, “Glycopeptide antibiotics” (American Cyanamid Company, priority 2001, dated 2012)

Legend:
Assay in all cases: In vitro antibacterial evaluation: minimum inhibitory concentration (MIC), broth dilution method
Assay type in all cases: cell-based
Enterococcus sp. = settings: 18 hours at 35° C.
Method: (§1) The minimum inhibitory concentration (MIC), the lowest concentration of the antibiotic which inhibits growth of the test organism, is determined by the broth dilution method using Muller-Hinton II […] (Baltimore Biological Laboratories) following the recommendations of the National Committee for Clinical Laboratory Standards [Methods for dilution antimicrobial susceptibility tests for bacteria that grow aerobically, approved standard M7-A2, National Committee for Clinical Laboratory Standards, Villanova, Pa].
(§2) An inoculum level of 5×10^5 CFU/mL, and a range of antibiotic concentrations (64-0.06 μg/mL) is used. […] The test organisms include a spectrum of Gram-positive bacteria comprised of Staphylococcus sp., Streptococcus sp. and Enterococcus sp. These organisms include recent clinical isolates that are resistant to methicillin, penicillin and/or vancomycin.

Escherichia coli = Escherichia coli (GC 4560); 18 hours at 35° C.
Method: as §1, §2

Staphylococcus sp. = test system: Staphylococcus sp.
Method: as §1, §2

Streptococcus sp. = settings: 18 hours at 35° C.
Method: as §1, §2

[1] = broth dilution, inoculum 5×10^5 CFU/mL

CC(C)=CCN1CC(C(O)C2NC(=O)C(C(O)C3CNC(=N)N3)NC(=O)C(Cc3ccc(OC4OC(CO)C(OC5OC6COC7(OC6C(O)C5O)C5CC6CC(C5)CC7C6)C(O)C4O)cc3)NC(=O)C(C(C)c3ccccc3)NC(=O)CNC(=O)C(CO)NC2=O)N(C2OC(CO)C(O)C(O)C2O)C1=N (stereo not drawn) [Example 225, Cyclo[glycyl-β-methylphenylalanyl-O-[4-O-[4,6-O-(2-adamantylidene)hexopyranosyl]hexopyranosyl]tyrosyl-3-(2-iminoimidazolidin-4-yl)seryl-3,3-hexopyranosyl-2-imino-1-(3-methylbut-2-en-1-iminoimidazolidin-4-yl]serylseryl]]
<0.12 µg/mL: MIC Streptococcus pneumoniae (GC 1894) (Streptococcus sp.; Streptococcus pneumoniae (GC 1894)) | MIC Streptococcus pneumoniae (GC 1894) (Streptococcus sp.; [1])
4 µg/mL: MIC Enterococcus avium (GC 4558) (Enterococcus sp.; Enterococcus avium (GC 4558)) | MIC Enterococcus faecalis (GC 4553) (Enterococcus sp.; Enterococcus faecalis (GC 4553)) | MIC Enterococcus faecium (GC 2243) (Enterococcus sp.; Enterococcus faecium (GC 2243)) | MIC Enterococcus avium (GC 4558) (Enterococcus sp.; [1]) | MIC Enterococcus faecalis (GC 4553) (Enterococcus sp.; [1]) | MIC Enterococcus faecium (GC 2243) (Enterococcus sp.; [1]) | MIC Escherichia coli (GC 4560) (Escherichia coli) | MIC Staphylococcus aureus (ATCC 29213) (Staphylococcus sp.; strain ATCC 29213) | MIC Staphylococcus aureus (GC 3051) (Staphylococcus sp.; strain GC 3051) | MIC Staphylococcus aureus (GC 4541) (Staphylococcus sp.; strain GC 4541) | MIC Staphylococcus aureus-SMITH (GC 4543) (Staphylococcus sp.; strain GC 4543) | MIC Staphylococcus aureus (GC 4545) (Staphylococcus sp.; strain GC 4545) | MIC Staphylococcus haemolyticus (GC 4546) (Staphylococcus sp.; strain GC 4546) | MIC Coagulase Negative Staphylococcus (GC 4547) (Staphylococcus sp.; strain GC 4547) | MIC Coagulase Negative Staphylococcus (GC 4551) (Staphylococcus sp.; strain GC 4551)
8 µg/mL: MIC Enterococcus faecalis (ATCC 29212) (Enterococcus sp.; Enterococcus faecalis (ATCC 29212)) | MIC Enterococcus faecalis (GC 2242) (Enterococcus sp.; Enterococcus faecalis (GC 2242)) | MIC Enterococcus faecalis (GC 4552) (Enterococcus sp.; Enterococcus faecalis (GC 4552)) | MIC Enterococcus faecium (GC 4556) (Enterococcus sp.; Enterococcus faecium (GC 4556)) | MIC Enterococcus faecalis (ATCC 29212) (Enterococcus sp.; [1]) | MIC Enterococcus faecalis (GC 2242) (Enterococcus sp.; [1]) | MIC Enterococcus faecalis (GC 4552) (Enterococcus sp.; [1]) | MIC Enterococcus faecium (GC 4556) (Enterococcus sp.; [1]) | MIC Staphylococcus aureus (GC 1131) (Staphylococcus sp.; strain GC 1131) | MIC Staphylococcus aureus (GC 3053) (Staphylococcus sp.; strain GC 3053) | MIC Staphylococcus aureus (GC 4542) (Staphylococcus sp.; strain GC 4542) | MIC Staphylococcus aureus (GC 4544) (Staphylococcus sp.; strain GC 4544)
1 µg/mL: MIC Enterococcus faecium (GC 4557) (Enterococcus sp.; Enterococcus faecium (GC 4557)) | MIC Enterococcus faecium (GC 4557) (Enterococcus sp.; [1]) | MIC Streptococcus pneumoniae (GC 4565) (Streptococcus sp.; Streptococcus pneumoniae (GC 4565)) | MIC Streptococcus pneumoniae (GC 4565) (Streptococcus sp.; [1])
16 µg/mL: MIC Enterococcus faecalis (GC 2691) (Enterococcus sp.; Enterococcus faecalis (GC 2691)) | MIC Enterococcus faecalis (GC 3059) (Enterococcus sp.; Enterococcus faecalis (GC 3059)) | MIC Enterococcus faecalis (GC 4554) (Enterococcus sp.; Enterococcus faecalis (GC 4554)) | MIC Enterococcus faecalis (GC 6189) (Enterococcus sp.; Enterococcus faecalis (GC 6189)) | MIC Enterococcus faecalis (GC 2691) (Enterococcus sp.; [1]) | MIC Enterococcus faecalis (GC 3059) (Enterococcus sp.; [1]) | MIC Enterococcus faecalis (GC 4554) (Enterococcus sp.; [1]) | MIC Enterococcus faecalis (GC 6189) (Enterococcus sp.; [1])
0.5 µg/mL: MIC Streptococcus agalactiae (GC 4564) (Streptococcus sp.; Streptococcus agalactiae (GC 4564)) | MIC Streptococcus pneumoniae (ATCC 6301) (Streptococcus sp.; Streptococcus pneumoniae (ATCC 6301)) | MIC Streptococcus pyogenes (GC 4563) (Streptococcus sp.; Streptococcus pyogenes (GC 4563)) | MIC Streptococcus agalactiae (GC 4564) (Streptococcus sp.; [1]) | MIC Streptococcus pneumoniae (ATCC 6301) (Streptococcus sp.; [1]) | MIC Streptococcus pyogenes (GC 4563) (Streptococcus sp.; [1])
2 µg/mL: MIC Coagulase Negative Staphylococcus (GC 4548) (Staphylococcus sp.; strain GC 4548) | MIC Coagulase Negative Staphylococcus (GC 4549) (Staphylococcus sp.; strain GC 4549)
